The assay relates to CD2F1 mice, intracerebral L1210 leukemia, survival T/C. Kind of assay: NCI In Vivo Anticancer Drug Screen. Data for tumor model L1210 Leukemia (intracerebral) in CD2F1 (CDF1) mice. The note with it: higher = longer survival. Here is the method: The antitumor activity of compounds was measured in mice bearing transplantable tumors. Survival or tumor size were measured and the results are expressed as the measurement made in the treated group (T) divided by the measurement made in the vehicle treated control group (C). The tumor model used in this assay is L1210 Leukemia (intracerebral) in CD2F1 (CDF1) mice

Setting [1] is: endpoint: median survival time, dose: 32.0 mg/kg/injection, schedule: Q01DX005 (ip), vehicle: saline with Tween-80.
[2] abbreviates: endpoint: median survival time, dose: 128.0 mg/kg/injection, schedule: Q01DX005 (ip), vehicle: saline with Tween-80.
The mark [3] stands for this setting: endpoint: median survival time, dose: 256.0 mg/kg/injection, schedule: Q01DX005 (ip), vehicle: saline with Tween-80.
The mark [4] stands for this setting: endpoint: median survival time, dose: 0.5 mg/kg/injection, schedule: Q01DX009 (ip), vehicle: saline.
Setting [5] is: endpoint: median survival time, dose: 1.0 mg/kg/injection, schedule: Q01DX009 (ip), vehicle: saline.
Setting [6] is: endpoint: median survival time, dose: 2.0 mg/kg/injection, schedule: Q01DX009 (ip), vehicle: saline.
Where [7] appears, read: endpoint: median survival time, dose: 4.0 mg/kg/injection, schedule: Q01DX009 (ip), vehicle: saline.
The mark [8] stands for this setting: endpoint: median survival time, dose: 8.0 mg/kg/injection, schedule: Q01DX009 (ip), vehicle: saline.

Structures are written as SMILES. Where “and” joins values, the source holds several entries; their conditions need not be identical. Identical values can stand only once. Inconclusive results and toxic doses are left out.

With `CN(C)CCCN1c2ccccc2Sc2ccc(Cl)cc21`, under “endpoint: median survival time, dose: 50.0 mg/kg/injection, schedule: Q01DX001 (ip), vehicle: water”, the T/C was 113 % of control.
Consider `CSCS(=O)C[C@H](CO)NC(=O)/C=C/c1c(C)[nH]c(=O)[nH]c1=O` (stereo not given in full), for which the T/C reads like this: (endpoint: median survival time, dose: 0.06 mg/kg/injection, schedule: Q01DX005 (ip), vehicle: Klucel (hydroxypropylcellulose) (HPC)) 97 % of control and 102 % of control; (endpoint: median survival time, dose: 0.12 mg/kg/injection, schedule: Q01DX005 (ip), vehicle: Klucel (hydroxypropylcellulose) (HPC)) 100 % of control and 101 % of control; (endpoint: median survival time, dose: 0.25 mg/kg/injection, schedule: Q01DX005 (ip), vehicle: Klucel (hydroxypropylcellulose) (HPC)) 100 % of control and 105 % of control; (endpoint: median survival time, dose: 0.5 mg/kg/injection, schedule: Q01DX005 (ip), vehicle: Klucel (hydroxypropylcellulose) (HPC)) 100 % of control and 102 % of control.
`CCCCCCCCN(C)/N=N/c1nc[nH]c1C(N)=O`: the T/C runs as follows: (endpoint: median survival time, dose: 16.0 mg/kg/injection, schedule: Q01DX005 (ip), vehicle: saline with Tween-80) 119 % of control; under setting [1], 121 % of control; (endpoint: median survival time, dose: 64.0 mg/kg/injection, schedule: Q01DX005 (ip), vehicle: saline with Tween-80) 124 % of control; under setting [2], 118 % of control; under setting [3], 89 % of control.
`CC1C[C@@H](O)C(NC(=O)N(CCCl)N=O)[C@@H](O)C1` (stereo not given in full): the T/C runs as follows: (endpoint: mean survival time, dose: 6.0 mg/kg/injection, schedule: Q01DX001 (ip), vehicle: saline) 123 % of control; (endpoint: mean survival time, dose: 13.0 mg/kg/injection, schedule: Q01DX001 (ip), vehicle: saline) 154 % of control; (endpoint: mean survival time, dose: 20.0 mg/kg/injection, schedule: Q01DX001 (ip), vehicle: saline) 332 % of control; (endpoint: mean survival time, dose: 30.0 mg/kg/injection, schedule: Q01DX001 (ip), vehicle: saline) 186 % of control; (endpoint: mean survival time, dose: 45.0 mg/kg/injection, schedule: Q01DX001 (ip), vehicle: saline) 157 % of control.
For `COC1OC(CO)C(O)C(NC(=O)N(C)N=O)C1O` (stereo not given), the T/C is, setting by setting: under setting [4], 102 % of control; under setting [5], 107 % of control; under setting [6], 111 % of control; under setting [7], 111 % of control; under setting [8], 116 % of control; (endpoint: median survival time, dose: 16.0 mg/kg/injection, schedule: Q01DX009 (ip), vehicle: saline) 102 % of control.
With `CN(C)/N=N/c1[nH]ncc1C(N)=O`, the T/C by setting is: under setting [1], 112 % of control; under setting [2], 122 % of control; under setting [3], 114 % of control.
Turning to `CC1(C)N=C(N)N=C(N)N1c1ccc(CCC(=O)Nc2ccc(S(=O)(=O)F)cc2)c(Cl)c1`, the T/C reads like this: (endpoint: mean survival time, dose: 6.25 mg/kg/injection, schedule: Q01DX009 (ip), vehicle: saline) 94 % of control; (endpoint: mean survival time, dose: 12.5 mg/kg/injection, schedule: Q01DX009 (ip), vehicle: saline) 94 % of control; (endpoint: mean survival time, dose: 25.0 mg/kg/injection, schedule: Q01DX009 (ip), vehicle: saline) 94 % of control; (endpoint: mean survival time, dose: 50.0 mg/kg/injection, schedule: Q01DX009 (ip), vehicle: saline) 98 % of control.
As to `CCC(=O)O[C@H]1CC[C@H]2[C@@H]3CC[C@H]4CC(=O)[C@H](C)C[C@]4(C)[C@H]3CC[C@]12C`, the T/C runs as follows: (endpoint: median survival time, dose: 8.0 mg/kg/injection, schedule: Q01DX009 (ip), vehicle: saline with Tween-80) 105 % of control and 115 % of control; (endpoint: median survival time, dose: 16.0 mg/kg/injection, schedule: Q01DX009 (ip), vehicle: saline with Tween-80) 105 % of control; (endpoint: median survival time, dose: 32.0 mg/kg/injection, schedule: Q01DX009 (ip), vehicle: saline with Tween-80) 105 % of control; (endpoint: median survival time, dose: 64.0 mg/kg/injection, schedule: Q01DX009 (ip), vehicle: saline with Tween-80) 122 % of control and 101 % of control; (endpoint: median survival time, dose: 128.0 mg/kg/injection, schedule: Q01DX009 (ip), vehicle: saline with Tween-80) 103 % of control; (endpoint: median survival time, dose: 256.0 mg/kg/injection, schedule: Q01DX009 (ip), vehicle: saline with Tween-80) 104 % of control. Also, the T/C (endpoint: median survival time, dose: 512.0 mg/kg/injection, schedule: Q01DX009 (ip), vehicle: saline with Tween-80) was 121 % of control and 103 % of control.
Regarding `COc1cc([C@@H]2c3cc4c(cc3[C@@H](OC3OC5CO[C@@H](c6cccs6)OC5C(O)C3O)[C@H]3COC(=O)[C@H]23)OCO4)cc(OC)c1O` (stereo not given in full), the T/C is 101 % of control and 108 % of control (endpoint: median survival time, dose: 0.25 mg/kg/injection, schedule: Q01DX009 (ip), vehicle: saline); 108 % of control and 111 % of control under setting [4]; 111 % of control and 116 % of control under setting [5]; 124 % of control and 114 % of control under setting [6]; 122 % of control and 104 % of control under setting [7]; 88 % of control under setting [8].
On to `O=NN(CCCl)C(=O)NC1CCC(=O)NC1=O` (stereo not given), for which the T/C is, setting by setting: (endpoint: median survival time, dose: 2.0 mg/kg/injection, schedule: Q01DX001 (ip), vehicle: saline + alcohol) 112 % of control; (endpoint: median survival time, dose: 8.0 mg/kg/injection, schedule: Q01DX001 (ip), vehicle: DMSO) 602 % of control; (endpoint: median survival time, dose: 8.0 mg/kg/injection, schedule: Q01DX001 (ip), vehicle: saline + alcohol) 192 % of control; (endpoint: median survival time, dose: 8.0 mg/kg/injection, schedule: Q01DX001 (oral), vehicle: saline + alcohol) 168 % of control; (endpoint: median survival time, dose: 16.0 mg/kg/injection, schedule: Q01DX001 (ip), vehicle: DMSO) 215 % of control; (endpoint: median survival time, dose: 16.0 mg/kg/injection, schedule: Q01DX001 (ip), vehicle: saline + alcohol) 224 % of control. Besides, the T/C is 236 % of control (endpoint: median survival time, dose: 16.0 mg/kg/injection, schedule: Q01DX001 (oral), vehicle: saline + alcohol); 95 % of control (endpoint: median survival time, dose: 32.0 mg/kg/injection, schedule: Q01DX001 (ip), vehicle: DMSO); 389 % of control (endpoint: median survival time, dose: 32.0 mg/kg/injection, schedule: Q01DX001 (ip), vehicle: saline + alcohol); 164 % of control (endpoint: median survival time, dose: 32.0 mg/kg/injection, schedule: Q01DX001 (oral), vehicle: saline + alcohol); 97 % of control (endpoint: median survival time, dose: 64.0 mg/kg/injection, schedule: Q01DX001 (oral), vehicle: saline + alcohol).
For the compound `Nc1nc2c(c(=O)[nH]1)N(C=O)C(CNc1ccc(C(=O)N[C@@H](CCC(=O)O)C(=O)O)cc1)CN2` (stereo not given in full), the T/C runs as follows: (endpoint: median survival time, dose: 128.0 mg/kg/injection, schedule: Q01DX005 (ip), vehicle: saline) 96 % of control and 106 % of control; (endpoint: median survival time, dose: 256.0 mg/kg/injection, schedule: Q01DX005 (ip), vehicle: saline) 95 % of control and 108 % of control; (endpoint: median survival time, dose: 512.0 mg/kg/injection, schedule: Q01DX005 (ip), vehicle: saline) 92 % of control and 96 % of control.

Values taken from PubChem BioAssay AID260 (DTP/NCI, 2004).
